Data as given in the supplement of paper PMC10307832.

compound: CN1CCN(CC1)C2=CC(=C(C=C2)NC3=NC(=C(S3)C(=O)C4=C(C=CC=C4Cl)Cl)N)OC [XMD14-99] + CC1(C)CCC(c2ccc(Cl)cc2)=C(CN2CCN(c3ccc(C(=O)NS(=O)(=O)c4ccc(N[C@H](CCN5CCOCC5)CSc5ccccc5)c(S(=O)(=O)C(F)(F)F)c4)cc3)CC2)C1 [Navitoclax] (partner 0.5 µM); assay: relative viability (nuclei count vs DMSO), 5 days (fraction); higher = more cells survive; conditions: first compound 0.08 µM
Outline: (§1)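 Lung cancer cell lines were pin-tool dosed in 1536-well plates on the day after seeding, with either a lone drug or a fixed anchor-drug dose plus five library-drug doses (not always all listed) in √10 steps. Nuclei were counted on 4× images after 5 days. Relative viability is the ratio of treated-well to vehicle-well nuclei counts, with each value a median of duplicate plates.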

Cell Line	relative viability
NCI-H3122	0.989
HOP-62	1.12
LU99A	0.766
BEN	0.0784
HARA	1.15
HCC-78	0.657
NCI-H441	0.575
LCLC-97TM1	0.43
NCI-H2023	0.985
A-427	0.894
NCI-H460	1.06
NCI-H1734	0.805
NCI-H520	0.992
NCI-H2405	0.825
SW 1573	0.961
NCI-H1395	1.06
201T	1.18

Cell Line	relative viability
NCI-H1915	0.833
HCC-827	1.06
LXF-289	0.903
NCI-H2347	0.736
CAL-12T	1.28
NCI-H1651	0.982
EPLC-272H	1.14
NCI-H23	0.782
NCI-H1355	0.87
NCI-H322M	1.15
NCI-H1437	1.06
NCI-H1755	1.02
NCI-H2085	1.11
HCC-15	0.663
NCI-H1793	0.424
PC-3 [JPC-3]	0.794

same assay, conditions: first compound 0.8 µM

Cell Line	relative viability
NCI-H3122	0.945
HOP-62	1.16
LU99A	0.776
BEN	0.0577
HARA	1.18
HCC-78	0.729
NCI-H441	0.556
LCLC-97TM1	0.455
NCI-H2023	0.959
A-427	0.954
NCI-H460	1.02
NCI-H1734	0.816
NCI-H520	1.1
NCI-H2405	1.05
SW 1573	1.15
NCI-H1395	1.11
201T	1.17

Cell Line	relative viability
NCI-H1915	0.761
HCC-827	0.99
LXF-289	0.913
NCI-H2347	0.825
CAL-12T	1.14
NCI-H1651	1.04
EPLC-272H	1.1
NCI-H23	0.874
NCI-H1355	0.863
NCI-H322M	1.27
NCI-H1437	1
NCI-H1755	0.972
NCI-H2085	1.1
HCC-15	0.617
NCI-H1793	0.411
PC-3 [JPC-3]	0.756

same assay, conditions: first compound 2.53 µM

Cell Line	relative viability
NCI-H3122	0.902
HOP-62	1.03
LU99A	0.786
BEN	0.0776
HARA	1.17
HCC-78	0.794
NCI-H441	0.724
LCLC-97TM1	0.268
NCI-H2023	0.953
A-427	0.779
NCI-H460	1.03
NCI-H1734	0.765
NCI-H520	1.12
NCI-H2405	0.877
SW 1573	1.05
NCI-H1395	1.09
201T	1.11

Cell Line	relative viability
NCI-H1915	0.742
HCC-827	0.793
LXF-289	0.884
NCI-H2347	0.699
CAL-12T	1.21
NCI-H1651	0.933
EPLC-272H	1.29
NCI-H23	0.744
NCI-H1355	0.782
NCI-H322M	1.33
NCI-H1437	0.913
NCI-H1755	0.926
NCI-H2085	1.1
HCC-15	0.609
NCI-H1793	0.461
PC-3 [JPC-3]	0.768

same assay, conditions: first compound 8 µM

Cell Line	relative viability
NCI-H3122	0.724
HOP-62	0.951
LU99A	0.725
BEN	0.0694
HARA	1.02
HCC-78	0.622
NCI-H441	0.569
LCLC-97TM1	0.382
NCI-H2023	0.849
A-427	0.807
NCI-H460	0.767
NCI-H1734	0.654
NCI-H520	1.01
NCI-H2405	0.436
SW 1573	0.765
NCI-H1395	0.902
201T	1.15

Cell Line	relative viability
NCI-H1915	0.737
HCC-827	0.873
LXF-289	0.836
NCI-H2347	0.488
CAL-12T	1.16
NCI-H1651	0.943
EPLC-272H	1.11
NCI-H23	0.748
NCI-H1355	0.778
NCI-H322M	1.08
NCI-H1437	0.629
NCI-H1755	0.809
NCI-H2085	0.823
HCC-15	0.494
NCI-H1793	0.386
PC-3 [JPC-3]	0.667

compound: N[C@@H]1CCCN(c2c(/C=C3\SC(=O)NC3=O)cccc2-c2ccccc2)C1 [AZD1208] + CC1(C)CCC(c2ccc(Cl)cc2)=C(CN2CCN(c3ccc(C(=O)NS(=O)(=O)c4ccc(N[C@H](CCN5CCOCC5)CSc5ccccc5)c(S(=O)(=O)C(F)(F)F)c4)cc3)CC2)C1 [Navitoclax] (partner 0.5 µM); assay: as above; conditions: first compound 0.08 µM
Outline: as §1

Cell Line	relative viability
NCI-H3122	1.04
HOP-62	1.05
LU99A	0.805
BEN	0.0677
HARA	1.13
HCC-78	0.951
NCI-H441	0.936
LCLC-97TM1	0.369
NCI-H2023	1.02
A-427	0.936
NCI-H460	1.05
NCI-H1734	0.753
NCI-H520	0.973
NCI-H2405	0.78
SW 1573	0.896
NCI-H1395	1.05
201T	1.24

Cell Line	relative viability
NCI-H1915	0.794
HCC-827	1.05
LXF-289	0.955
NCI-H2347	0.917
CAL-12T	1.28
NCI-H1651	0.879
EPLC-272H	1.08
NCI-H23	0.843
NCI-H1355	0.963
NCI-H322M	1.1
NCI-H1437	1.13
NCI-H1755	0.991
NCI-H2085	1.02
HCC-15	0.632
NCI-H1793	0.336
PC-3 [JPC-3]	0.859

same assay, conditions: first compound 0.253 µM

Cell Line	relative viability
NCI-H3122	1
HOP-62	0.886
LU99A	0.855
BEN	0.0668
HARA	1.16
HCC-78	0.752
NCI-H441	0.698
LCLC-97TM1	0.271
NCI-H2023	0.99
A-427	0.95
NCI-H460	1.34
NCI-H1734	0.932
NCI-H520	1.22
NCI-H2405	0.792
SW 1573	0.948
NCI-H1395	1.23
201T	1.23

Cell Line	relative viability
NCI-H1915	0.797
HCC-827	1.11
LXF-289	1.01
NCI-H2347	0.94
CAL-12T	1.39
NCI-H1651	0.929
EPLC-272H	1.24
NCI-H23	1.18
NCI-H1355	0.861
NCI-H322M	1.27
NCI-H1437	1.11
NCI-H1755	0.989
NCI-H2085	1.29
HCC-15	0.725
NCI-H1793	0.47
PC-3 [JPC-3]	0.953

same assay, conditions: first compound 0.8 µM

Cell Line	relative viability
NCI-H3122	0.995
HOP-62	1.05
LU99A	0.864
BEN	0.0589
HARA	1.2
HCC-78	0.672
NCI-H441	0.65
NCI-H2023	0.977
A-427	0.892
NCI-H460	1.17
NCI-H1734	0.714
NCI-H520	0.991
NCI-H2405	0.84
SW 1573	0.765
NCI-H1395	0.956
201T	1.25

Cell Line	relative viability
NCI-H1915	0.839
HCC-827	0.984
LXF-289	0.932
NCI-H2347	0.685
CAL-12T	1.08
NCI-H1651	0.858
EPLC-272H	1.08
NCI-H23	0.721
NCI-H1355	0.785
NCI-H322M	1.2
NCI-H1437	1.02
NCI-H1755	1.02
NCI-H2085	1.13
HCC-15	0.55
NCI-H1793	0.354
PC-3 [JPC-3]	0.792

same assay, conditions: first compound 2.53 µM

Cell Line	relative viability
NCI-H3122	1.05
HOP-62	0.969
LU99A	0.712
BEN	0.0576
HARA	1.03
HCC-78	0.685
NCI-H441	0.289
LCLC-97TM1	0.446
NCI-H2023	0.934
A-427	0.876
NCI-H460	1.26
NCI-H1734	0.724
NCI-H520	0.838
NCI-H2405	0.791
SW 1573	0.995
NCI-H1395	1.02
201T	1.24

Cell Line	relative viability
NCI-H1915	0.832
HCC-827	1.07
LXF-289	0.978
NCI-H2347	0.794
CAL-12T	1.28
NCI-H1651	0.887
EPLC-272H	1.04
NCI-H23	0.712
NCI-H1355	0.932
NCI-H322M	1.13
NCI-H1437	1.16
NCI-H1755	0.952
NCI-H2085	1.14
HCC-15	0.642
NCI-H1793	0.469
PC-3 [JPC-3]	0.809

same assay, conditions: first compound 8 µM

Cell Line	relative viability
NCI-H3122	1.08
HOP-62	1.07
LU99A	0.514
BEN	0.125
HARA	1.15
HCC-78	0.709
NCI-H441	0.393
LCLC-97TM1	0.21
NCI-H2023	0.959
A-427	0.863
NCI-H460	1.16
NCI-H1734	0.582
NCI-H520	0.767
NCI-H2405	0.789
SW 1573	0.717
NCI-H1395	0.872
201T	1.31

Cell Line	relative viability
NCI-H1915	0.825
HCC-827	0.983
LXF-289	1.03
NCI-H2347	0.716
CAL-12T	0.956
NCI-H1651	0.774
EPLC-272H	0.897
NCI-H23	0.646
NCI-H1355	0.853
NCI-H322M	1.2
NCI-H1437	1.07
NCI-H1755	0.786
NCI-H2085	1.02
HCC-15	0.612
NCI-H1793	0.364
PC-3 [JPC-3]	0.828

compound: N[C@@H]1CCCN(c2c(/C=C3\SC(=O)NC3=O)cccc2-c2ccccc2)C1 [AZD1208] + COc1cc2c(Oc3ccc(NC(=O)C4(C(=O)Nc5ccc(F)cc5)CC4)cc3F)ccnc2cc1OCCCN1CCOCC1 [Foretinib] (partner 0.25 µM); assay: as above; conditions: first compound 0.08 µM
Outline: as §1

Cell Line	relative viability
NCI-H3122	0.991
HOP-62	1.03
LU99A	0.707
BEN	0.609
HARA	0.905
HCC-78	0.549
NCI-H441	1.1
LCLC-97TM1	0.914
NCI-H2023	0.811
A-427	0.924
NCI-H460	0.992
NCI-H1734	0.773
NCI-H520	0.746
NCI-H2405	1.03
SW 1573	0.709
NCI-H1395	0.988
